The record followed here is ChEMBL document CHEMBL1156141, “Synthesis and biological evaluation of novel thiocolchicine-podophyllotoxin conjugates” (Eur J Med Chem, 2010).

Calls of active or inactive are those of the source. The calls are words filed in the database; no cut-off is given here.

Data set [1] deals with A549. Kind of data set: Inhibition of microtubule in human A549 cells assessed as roundish cells at 0.5 uM after 1 hr by immunofluorescence analysis. It is filed as cell-based.
Data set [2] concerns A549. To be noted: Homo sapiens, at 0.5 µM.
Description: Inhibition of microtubule in human A549 cells assessed as roundish cells at 0.5 uM after 24 hrs by immunofluorescence analysis
Data set [3] relates to A549. To be noted: Homo sapiens, at 0.5 µM. This is another data set of the same source.
Description: Inhibition of microtubule in human A549 cells assessed as network disappearane at 0.5 uM after 1 hr by immunofluorescence analysis
Data set [4] concerns A549. Kind of data set: Inhibition of microtubule in human A549 cells assessed as microtubule organization at 0.5 uM after 1 hr by immunofluorescence analysis. The class given is cell-based.
Data set [5] is described as follows: Chemical stability assessed as disulfide cleavage after 3 hrs by ESI-MS in presence of L-glutathione. It is filed as physicochemical.

Turning to `COc1cc([C@@H]2c3cc4c(cc3[C@H](OC(=O)CSSCC(=O)O[C@H]3c5cc6c(cc5[C@@H](c5cc(OC)c(OC)c(OC)c5)[C@H]5C(=O)OC[C@@H]53)OCO6)[C@H]3COC(=O)[C@H]23)OCO4)cc(OC)c1OC`, the inhibition (in general, the change of the read-out against control, counted positive when it falls) in data set [1] amounted to 50%. Besides, in data set [2], the inhibition result is “Active”.
The matching figures for `COc1cc2c(c(OC)c1OC)-c1ccc(SC)c(=O)cc1[C@@H](NC(=O)C(N)CSSCC(N)C(=O)N[C@H]1CCc3cc(OC)c(OC)c(OC)c3-c3ccc(SC)c(=O)cc31)CC2` (stereo partly specified): 50% and “Active”.
As to `COc1cc([C@@H]2c3cc4c(cc3[C@H](O)[C@H]3COC(=O)[C@H]23)OCO4)cc(OC)c1OC`, the inhibition result in data set [3] and in data set [2] was “Active” each time.
For `COc1cc([C@@H]2c3cc4c(cc3[C@H](OC(=O)C(N)CSSCC(N)C(=O)O[C@H]3c5cc6c(cc5[C@@H](c5cc(OC)c(OC)c(OC)c5)[C@H]5C(=O)OC[C@@H]53)OCO6)[C@H]3COC(=O)[C@H]23)OCO4)cc(OC)c1OC` (stereo partly specified), the inhibition entry in data set [3] and in data set [2] was “Active” each time.
`COc1cc2c(c(OC)c1OC)-c1ccc(SC)c(=O)cc1[C@@H](NC(=O)C(N)CCCCC(N)C(=O)N[C@H]1CCc3cc(OC)c(OC)c(OC)c3-c3ccc(SC)c(=O)cc31)CC2` (stereo partly specified): the inhibition entry in data set [2] is “Active”. For the same compound, the inhibition result in data set [4] was “inactive”.
Turning to `COc1cc2c(c(OC)c1OC)-c1ccc(SC)c(=O)cc1[C@@H](NC(=O)CCSSCCC(=O)N[C@H]1CCc3cc(OC)c(OC)c(OC)c3-c3ccc(SC)c(=O)cc31)CC2`, the inhibition entry in data set [3] and in data set [2] was “Active” in each case.
With `COc1cc2c(c(OC)c1OC)-c1ccc(SC)c(=O)cc1[C@@H](NC(=O)CSSCC(=O)N[C@H]1CCc3cc(OC)c(OC)c(OC)c3-c3ccc(SC)c(=O)cc31)CC2`, in data set [5], the Stability result is “Unstable”. Also, the inhibition entry in data set [3] and in data set [2] was “Active” in each case.
Take `COc1cc([C@@H]2c3cc4c(cc3[C@H](OC(=O)CCCCC(=O)O[C@H]3c5cc6c(cc5[C@@H](c5cc(OC)c(OC)c(OC)c5)[C@H]5C(=O)OC[C@@H]53)OCO6)[C@H]3COC(=O)[C@H]23)OCO4)cc(OC)c1OC`: the inhibition result in data set [2] was “Active”. The inhibition entry in data set [4] is “inactive”.
With `COc1cc2c(c(OC)c1OC)-c1ccc(SC)c(=O)cc1[C@@H](NC(=O)CCCCC(=O)N[C@H]1CCc3cc(OC)c(OC)c(OC)c3-c3ccc(SC)c(=O)cc31)CC2`, the inhibition in data set [1] is 50%. Also, the inhibition entry in data set [2] was “Active”.
`COc1cc([C@@H]2c3cc4c(cc3[C@H](OC(=O)CCCSSCCCC(=O)N[C@H]3CCc5cc(OC)c(OC)c(OC)c5-c5ccc(SC)c(=O)cc53)[C@H]3COC(=O)[C@H]23)OCO4)cc(OC)c1OC`: the inhibition entry in data set [3] and in data set [2] was “Active” each time.
